According to publication PMC9898036, “VIP152 is a selective CDK9 inhibitor with pre-clinical in vitro and in vivo efficacy in chronic lymphocytic leukemia” (Leukemia, 2022):

Experiments:
[1] = molecular target: CLK4 (Homo sapiens, UniProt Q9HAZ1); assay: KINOMEscan: CLK4; type: binding; settings: 1000 nM, read-out: Percent Control
[2] = molecular target: CDK4 (Homo sapiens, UniProt P11802); assay: KINOMEscan: CDK4; type: binding; settings: 1000 nM, read-out: Percent Control
[3] = molecular target: KIT(D816H) (Homo sapiens, UniProt P10721, D816H); assay: KINOMEscan: KIT(D816H); type: binding; settings: 1000 nM, read-out: Percent Control
[4] = molecular target: ERBB4 (Homo sapiens, UniProt Q15303); assay: KINOMEscan: ERBB4; type: binding; settings: 1000 nM, read-out: Percent Control
[5] = molecular target: ARK5 (Homo sapiens, UniProt O60285); assay: KINOMEscan: ARK5; type: binding; settings: 1000 nM, read-out: Percent Control
[6] = molecular target: CDK7 (Homo sapiens, UniProt P50613); assay: KINOMEscan: CDK7; type: binding
Description: The structure and synthesis of VIP152 were recently described by Lücking et al.. (Fig. 1A); however, the selectivity of the molecule in cellular systems has yet to be explored. […] We also performed this experiment at 1000 nM, where CDK9 was inhibited at 99%. […] We found a strong concordance between our data and those of Lücking when comparing the most inhibited kinases. Potential off-target effects of VIP152 were next tested in vitro at a concentration of 10 µM for off-target activity against a broad range of receptors, transporters, ion channels, and enzymes (n = 138) using the Eurofins Diversity Panel.
Kinomescan Kinase Profiling Assay
Kinomescan Assay was performed at DiscoverRX and described in Fabian, et al. 2005, Nat.
Biotechnol. In brief, kinases were produced and subsequently tagged with DNA for qPCR detection.
Streptavidin-coated magnetic beads were bound to biotinylated kinase ligands to serve as a solid support.
VIP152 was dissolved in DMSO and tested across a 10 serial threefold dilution set and compared to a test compound and a DMSO control. Kinases which were inhibited by VIP152 would not be bound to the solid-support resulting in decreased substrate for the qPCR reaction. Kinome map was produced via TreeSpot Analysis from DiscoverRX. […]
NanoBRETTM Target Engagement Assay Protocol […]
The cell and lipid:DNA […]
complex was dispensed into a sterile tissue culture dish and incubated for 22-24 hours. Test compounds were then delivered from the compound source plate to the wells of a 384-well white NBS plate by Echo 550. Cells with NanoBRET Tracer Reagent were then prepared by first removing media from dish of transfected HEK293 cells via aspiration, trypsinization, and allowing cells to dissociate from the dish. Trypsin was neutralized using medium containing serum and centrifuged at 200g for 5 minutes to pellet the cells. Cell density was then adjusted to 2E05 cells/mL in Opti-MEM without phenol red. Complete 20X NanoBRET Tracer Reagent was prepared with Tracer Dilution Buffer and dispensed at a ratio of 1:20 Reagent to cells in the tube. The cell

[7] = molecular target: PKNB(M.tuberculosis) (Mycobacterium tuberculosis, UniProt P9WI81); assay: DiscoverX KINOMEscan kinase profiling; type: binding; settings: kinase PKNB(M.tuberculosis) (Entrez pknB); compound concentration 1000 nM; read-out: Percent Control
[8] = molecular target: CHEK1 (Homo sapiens, UniProt O14757); assay: KINOMEscan: CHEK1; type: binding; settings: 1000 nM, read-out: Percent Control
[9] = tested on: C57BL/6 J mice engrafted with Eµ-MTCP1 splenocytes; assay: Eµ-MTCP1 adoptive transfer murine CLL model; type: in vivo, mouse; settings: 12.5mg/kg tail vein injection, every week
Description: All animal studies were carried out under protocols approved by The Ohio State University Institutional Animal Care and Use Committee (IACUC). Previously, 1 × 10^6 splenocytes from Eµ-MTCP1 mice, which recently were described to mimic human CLL, were resuspended in PBS and injected via tail vein into male C57BL/6 J from The Jackson Laboratory. Mice were monitored for development of peripheral disease by flow cytometry, measuring the percentage of CD5^+/CD19^+ cells in peripheral blood. Complete in vivo methods may be found in the supplementary material.
In vitro systems generally lack the full microenvironment that can lead to tumor cell resistance and survival. Next, we sought to assess the in vivo efficacy of VIP152 to better evaluate its potential clinical utility in patients with CLL. To accomplish this we used a novel transgenic model of CLL (Eµ-MTCP1 model) developed recently by our group that is characterized by CD5^+/CD19^+ and B220^Dim expansion in the blood. Splenocytes from diseased Eµ-MTCP1 mice were serially engrafted via tail vein injection and monitored for leukemia via weekly flow cytometry (Fig. 5A). Mice were randomized to vehicle versus VIP152 at the time blood disease was evident and treated every week until endpoint. […] Mice in the VIP152 treatment group had improved overall survival compared with vehicle with a median survival of 46 days vs 32 days respectively (Fig. 5D – p < 0.005). Following enrollment two mice had reduction in disease that was sustained below 10% for the duration of study and these mice were censored after 100 days upon which treatment was ceased. Two months following treatment cessation these mice succumbed to likely illness with evident splenomegaly. […]
Transcriptase. cDNA was immediately taken for qPCR using TaqMan Fast Advanced Master Mix using […]
Upon reaching 80% disease, these mice were euthanized and spleens were harvested. Splenocytes from a single donor were then used for the studies described here. 1 x 10^6 splenocytes were again injected via tail vein into male C57BL/6J mice and monitored via flow cytometry as previously described for development of disease as defined by ≥10% CD45+/CD5+/CD19+32. Upon reaching 10% disease, mice were randomly enrolled into one of two treatment arms: tail vein injection of 12.5mg/kg VIP152 dissolved in (30/10/60 v/v/v PEG400/EtOH/0.5% Tween-80 in water) or vehicle control.
Flow Cytometry analysis of blood […]
Anti-Mouse CD45R/B220 – cat. […] Data were analyzed using Kaluza Analysis Software (Beckman-Coulter v2.1).
Mass spectra from all samples (N = 12) were converted to mzML with ProteoWizard and OpenMS (v 2.5.0)30,31. Features from converted files were detected with Biosaur and searched on the OpenMS platform with […]

[10] = molecular target: CAMK4 (Homo sapiens, UniProt Q16566); assay: KINOMEscan: CAMK4; type: binding; settings: 1000 nM, read-out: Percent Control
[11] = molecular target: FLT3 (Homo sapiens, UniProt P36888); assay: KINOMEscan: FLT3; type: binding; settings: 1000 nM, read-out: Percent Control
[12] = molecular target: TGFBR2 (Homo sapiens, UniProt P37173); assay: KINOMEscan: TGFBR2; type: binding; settings: 100 nM, read-out: Percent Control

CDK7, sequence (P50613 whole entry): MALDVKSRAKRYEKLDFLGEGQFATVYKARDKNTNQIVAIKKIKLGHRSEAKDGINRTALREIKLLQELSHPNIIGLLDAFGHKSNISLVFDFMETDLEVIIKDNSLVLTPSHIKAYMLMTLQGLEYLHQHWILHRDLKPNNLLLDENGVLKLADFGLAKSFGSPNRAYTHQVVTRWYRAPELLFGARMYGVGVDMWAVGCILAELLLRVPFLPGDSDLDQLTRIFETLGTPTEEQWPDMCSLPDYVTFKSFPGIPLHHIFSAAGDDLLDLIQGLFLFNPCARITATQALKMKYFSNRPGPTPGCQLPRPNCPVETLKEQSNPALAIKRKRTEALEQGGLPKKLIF
PKNB(M.tuberculosis), sequence (P9WI81 whole entry): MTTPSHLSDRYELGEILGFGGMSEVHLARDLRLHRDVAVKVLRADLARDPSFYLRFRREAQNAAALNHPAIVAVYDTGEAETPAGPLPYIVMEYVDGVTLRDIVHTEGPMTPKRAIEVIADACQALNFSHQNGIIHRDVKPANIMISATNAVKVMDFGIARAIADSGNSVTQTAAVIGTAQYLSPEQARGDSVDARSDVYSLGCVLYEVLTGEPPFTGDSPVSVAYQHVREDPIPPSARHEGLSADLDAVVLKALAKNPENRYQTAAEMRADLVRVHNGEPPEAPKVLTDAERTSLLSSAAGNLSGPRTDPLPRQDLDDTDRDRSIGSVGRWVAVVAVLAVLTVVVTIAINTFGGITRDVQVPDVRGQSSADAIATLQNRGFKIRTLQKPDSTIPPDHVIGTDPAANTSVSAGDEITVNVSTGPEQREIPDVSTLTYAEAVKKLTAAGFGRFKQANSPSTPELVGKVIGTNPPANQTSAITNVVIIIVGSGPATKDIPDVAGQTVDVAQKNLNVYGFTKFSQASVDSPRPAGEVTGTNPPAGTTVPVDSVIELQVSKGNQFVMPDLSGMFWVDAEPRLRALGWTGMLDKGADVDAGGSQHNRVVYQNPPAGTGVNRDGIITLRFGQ
ARK5, sequence (O60285 whole entry): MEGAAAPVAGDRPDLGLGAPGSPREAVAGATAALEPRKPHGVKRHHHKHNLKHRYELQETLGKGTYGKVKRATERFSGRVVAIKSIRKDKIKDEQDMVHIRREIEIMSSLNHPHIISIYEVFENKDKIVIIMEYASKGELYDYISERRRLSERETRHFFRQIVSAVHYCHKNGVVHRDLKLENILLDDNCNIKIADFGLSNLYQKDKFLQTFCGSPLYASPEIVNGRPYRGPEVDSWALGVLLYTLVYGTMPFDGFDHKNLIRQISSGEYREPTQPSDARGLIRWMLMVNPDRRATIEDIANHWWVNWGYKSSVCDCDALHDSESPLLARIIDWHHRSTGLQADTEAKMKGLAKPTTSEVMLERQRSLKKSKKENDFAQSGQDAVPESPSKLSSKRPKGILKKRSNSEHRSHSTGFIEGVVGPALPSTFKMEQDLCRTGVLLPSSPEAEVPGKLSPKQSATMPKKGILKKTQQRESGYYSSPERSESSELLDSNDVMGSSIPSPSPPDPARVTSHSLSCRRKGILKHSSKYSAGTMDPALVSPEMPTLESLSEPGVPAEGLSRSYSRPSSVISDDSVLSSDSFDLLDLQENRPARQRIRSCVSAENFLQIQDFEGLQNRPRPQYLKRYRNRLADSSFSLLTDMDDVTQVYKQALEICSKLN
CAMK4, sequence (Q16566 whole entry): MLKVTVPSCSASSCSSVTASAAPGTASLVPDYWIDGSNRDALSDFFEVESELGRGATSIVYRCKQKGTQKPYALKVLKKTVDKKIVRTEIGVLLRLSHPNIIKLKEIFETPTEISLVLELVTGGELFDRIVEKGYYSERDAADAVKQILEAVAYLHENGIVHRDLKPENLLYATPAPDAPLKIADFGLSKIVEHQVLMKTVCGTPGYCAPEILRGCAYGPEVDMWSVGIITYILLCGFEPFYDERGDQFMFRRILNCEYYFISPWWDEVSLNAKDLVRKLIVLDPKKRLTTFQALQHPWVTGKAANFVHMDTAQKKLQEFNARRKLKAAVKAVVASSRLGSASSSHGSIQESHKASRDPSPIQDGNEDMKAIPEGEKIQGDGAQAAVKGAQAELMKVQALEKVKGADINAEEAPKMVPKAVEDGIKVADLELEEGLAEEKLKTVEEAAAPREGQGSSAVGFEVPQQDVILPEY
CDK4, sequence (P11802 whole entry): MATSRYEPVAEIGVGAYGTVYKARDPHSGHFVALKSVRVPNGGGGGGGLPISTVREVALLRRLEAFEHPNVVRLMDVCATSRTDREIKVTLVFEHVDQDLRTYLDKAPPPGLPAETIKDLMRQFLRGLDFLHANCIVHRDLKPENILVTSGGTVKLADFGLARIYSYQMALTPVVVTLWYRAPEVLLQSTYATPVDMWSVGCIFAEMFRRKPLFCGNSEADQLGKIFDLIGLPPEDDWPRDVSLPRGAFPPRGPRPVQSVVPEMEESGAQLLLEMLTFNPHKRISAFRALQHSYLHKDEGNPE
CLK4, sequence (Q9HAZ1 whole entry): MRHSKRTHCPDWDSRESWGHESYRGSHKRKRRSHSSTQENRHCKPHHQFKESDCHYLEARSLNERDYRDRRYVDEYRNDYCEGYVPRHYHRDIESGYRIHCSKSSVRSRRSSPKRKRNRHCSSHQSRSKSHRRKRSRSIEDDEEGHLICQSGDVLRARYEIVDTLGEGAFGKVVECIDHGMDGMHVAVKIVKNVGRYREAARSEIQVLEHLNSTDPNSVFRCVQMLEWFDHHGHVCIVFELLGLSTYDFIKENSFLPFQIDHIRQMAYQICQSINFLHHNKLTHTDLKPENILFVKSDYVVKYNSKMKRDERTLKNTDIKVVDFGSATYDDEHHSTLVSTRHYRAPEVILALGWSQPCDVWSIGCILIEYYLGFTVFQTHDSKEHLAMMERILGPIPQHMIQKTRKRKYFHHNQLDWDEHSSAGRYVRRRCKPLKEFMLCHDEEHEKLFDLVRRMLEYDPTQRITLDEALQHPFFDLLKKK
CHEK1, sequence (O14757 whole entry): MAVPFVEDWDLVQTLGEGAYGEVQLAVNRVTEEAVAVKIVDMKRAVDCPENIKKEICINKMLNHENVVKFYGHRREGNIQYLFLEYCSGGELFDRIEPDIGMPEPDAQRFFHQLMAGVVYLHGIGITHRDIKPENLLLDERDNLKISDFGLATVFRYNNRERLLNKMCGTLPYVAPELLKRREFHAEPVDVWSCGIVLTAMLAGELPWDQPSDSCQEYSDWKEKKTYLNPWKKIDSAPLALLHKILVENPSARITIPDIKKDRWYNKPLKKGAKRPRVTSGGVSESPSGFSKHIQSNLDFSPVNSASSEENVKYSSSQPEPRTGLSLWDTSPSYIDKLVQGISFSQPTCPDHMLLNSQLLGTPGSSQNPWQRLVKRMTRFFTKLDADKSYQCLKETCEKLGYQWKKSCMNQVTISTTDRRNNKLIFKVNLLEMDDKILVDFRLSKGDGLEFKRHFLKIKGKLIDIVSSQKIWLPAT
ERBB4, sequence (Q15303 26-1308): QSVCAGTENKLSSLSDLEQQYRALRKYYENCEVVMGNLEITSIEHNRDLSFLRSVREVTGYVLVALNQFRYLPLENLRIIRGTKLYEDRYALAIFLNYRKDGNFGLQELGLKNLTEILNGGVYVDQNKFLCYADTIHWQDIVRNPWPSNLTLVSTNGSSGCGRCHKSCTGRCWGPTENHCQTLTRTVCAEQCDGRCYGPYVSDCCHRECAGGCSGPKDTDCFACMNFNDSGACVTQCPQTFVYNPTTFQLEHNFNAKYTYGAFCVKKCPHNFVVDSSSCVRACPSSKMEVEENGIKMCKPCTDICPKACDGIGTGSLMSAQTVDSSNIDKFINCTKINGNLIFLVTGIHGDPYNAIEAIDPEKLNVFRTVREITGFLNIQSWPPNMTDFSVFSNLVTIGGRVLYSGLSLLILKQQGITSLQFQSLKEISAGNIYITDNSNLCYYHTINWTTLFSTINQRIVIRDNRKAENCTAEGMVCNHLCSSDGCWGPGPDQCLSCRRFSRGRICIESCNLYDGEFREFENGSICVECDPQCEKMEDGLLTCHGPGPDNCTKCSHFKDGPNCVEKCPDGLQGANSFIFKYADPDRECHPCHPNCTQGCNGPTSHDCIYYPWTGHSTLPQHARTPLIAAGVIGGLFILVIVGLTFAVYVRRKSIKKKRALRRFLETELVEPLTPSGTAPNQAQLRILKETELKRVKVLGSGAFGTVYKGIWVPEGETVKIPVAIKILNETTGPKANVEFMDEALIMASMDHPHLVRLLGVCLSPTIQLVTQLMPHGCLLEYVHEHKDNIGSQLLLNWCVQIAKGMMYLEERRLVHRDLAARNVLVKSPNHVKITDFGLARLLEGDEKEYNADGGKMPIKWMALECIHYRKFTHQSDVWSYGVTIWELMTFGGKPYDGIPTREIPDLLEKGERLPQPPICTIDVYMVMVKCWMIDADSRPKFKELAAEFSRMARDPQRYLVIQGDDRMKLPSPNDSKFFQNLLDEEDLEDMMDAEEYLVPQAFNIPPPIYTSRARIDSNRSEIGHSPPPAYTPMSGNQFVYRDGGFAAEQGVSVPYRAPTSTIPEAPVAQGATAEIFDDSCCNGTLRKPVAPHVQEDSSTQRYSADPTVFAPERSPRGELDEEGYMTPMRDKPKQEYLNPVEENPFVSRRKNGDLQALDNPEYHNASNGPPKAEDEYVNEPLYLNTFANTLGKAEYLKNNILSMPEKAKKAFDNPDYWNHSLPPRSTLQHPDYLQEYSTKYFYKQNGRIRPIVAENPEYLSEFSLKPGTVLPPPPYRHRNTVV

COc1cc(F)ccc1-c1cc(Nc2cc(CS(C)(=N)=O)ccn2)ncc1F (stereo not drawn) [VIP152]
remaining binding at 1 µM [1]: 88%
remaining binding at 1 µM [2]: 71%
remaining binding at 1 µM [3]: 59%
remaining binding at 1 µM [4]: 88%
remaining binding at 1 µM [5]: 100%
inhibition at 0.1 µM ([6]; 100 nM): 64%
inhibition at 1 µM ([6]; 1000 nM): 97.9%
remaining binding at 0.1 µM ([6]; CDK7, 100 nM, read-out: Percent Control): 36%
remaining binding at 1 µM ([6]; CDK7, 1000 nM, read-out: Percent Control): 2.1%
remaining binding at 1 µM [7]: 100%
remaining binding at 1 µM [8]: 100%
weight loss [9]: did not observe any weight loss
median survival ([9]; vehicle 32 days): 46 days
CD5+/CD19+ disease burden in peripheral blood ([9]; vs vehicle): statistically significantly lower
spleen size and spleen disease burden at endpoint ([9]; vs vehicle): did not have significantly smaller spleens nor significant decrease in spleen disease burden
remaining binding at 1 µM [10]: 100%
remaining binding at 1 µM [11]: 38%
remaining binding at 0.1 µM [12]: 100%
